We go through three compounds from ChEMBL document CHEMBL1155912, “Synthesis of 6- or 4-functionalized indoles via a reductive cyclization approach and evaluation as aromatase inhibitors” (Bioorg Med Chem Lett, 2008).

The structures appear in SMILES notation. Bounds are passed on as bounds.

The term inhibition denotes the share of the control response that was lost under treatment. The low end stands for a response near the control, the high end for a response far below the control.

The target in this data set is T1, CYP17 (steroid 17-alpha-hydroxylase/17,20 lyase) (Homo sapiens, UniProt P05093).
T1 sequence (P05093 whole entry): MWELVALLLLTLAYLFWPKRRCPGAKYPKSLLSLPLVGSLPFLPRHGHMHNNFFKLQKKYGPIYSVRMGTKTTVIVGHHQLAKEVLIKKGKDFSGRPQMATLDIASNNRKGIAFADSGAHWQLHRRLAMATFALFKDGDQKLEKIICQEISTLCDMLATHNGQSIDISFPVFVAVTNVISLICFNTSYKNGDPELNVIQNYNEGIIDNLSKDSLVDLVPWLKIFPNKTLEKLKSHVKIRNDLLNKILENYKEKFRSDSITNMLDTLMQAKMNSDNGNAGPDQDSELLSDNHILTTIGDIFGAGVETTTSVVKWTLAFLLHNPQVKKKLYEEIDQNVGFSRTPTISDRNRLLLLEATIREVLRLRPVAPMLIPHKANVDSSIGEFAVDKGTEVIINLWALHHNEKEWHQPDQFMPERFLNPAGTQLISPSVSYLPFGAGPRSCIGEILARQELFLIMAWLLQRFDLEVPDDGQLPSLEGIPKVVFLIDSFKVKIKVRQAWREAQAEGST
Nature of the data set: in vitro.
Description: Inhibition of human CYP17 expressed in Escherichia coli pJL17/OR coexpressed with rat NADPH-P450 reductase at 2.5 uM
Turning to `N#Cc1ccc(C(c2cccc3[nH]ccc23)n2cncn2)cc1` (stereo not drawn), the inhibition at 2.5 µM is less than 10%.

In the case of `N#Cc1ccc(C(c2ccc3cc[nH]c3c2)n2ccnc2)cc1` (racemic), the inhibition at 2.5 µM was found to be 26%.

`N#Cc1ccc(C(c2cccc3[nH]ccc23)n2ccnc2)cc1` (stereo not drawn) yielded an inhibition at 2.5 µM of 18%.
